From ChEMBL document CHEMBL5226328, “Rational Multitargeted Drug Design Strategy from the Perspective of a Medicinal Chemist” (J Med Chem, 2021) come the findings set out here.

For one test, the target named is T1, Vitamin D3 receptor (Homo sapiens, UniProt P11473).
T1 sequence (P11473 whole entry): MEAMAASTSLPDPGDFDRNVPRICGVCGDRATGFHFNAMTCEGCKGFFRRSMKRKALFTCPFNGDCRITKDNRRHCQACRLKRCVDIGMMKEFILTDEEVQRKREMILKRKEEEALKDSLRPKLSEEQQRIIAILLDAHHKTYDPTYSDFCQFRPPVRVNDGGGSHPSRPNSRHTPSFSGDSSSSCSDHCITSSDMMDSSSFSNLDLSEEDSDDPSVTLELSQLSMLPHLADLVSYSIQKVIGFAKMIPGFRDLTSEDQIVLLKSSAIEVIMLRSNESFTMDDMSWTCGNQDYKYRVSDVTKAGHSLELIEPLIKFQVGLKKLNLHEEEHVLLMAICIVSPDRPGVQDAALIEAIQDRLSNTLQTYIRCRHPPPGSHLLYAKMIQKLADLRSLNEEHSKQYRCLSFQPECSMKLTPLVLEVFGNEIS

A further test deals with T2, Thromboxane-A synthase (Homo sapiens, UniProt P24557).
T2 sequence (P24557 whole entry): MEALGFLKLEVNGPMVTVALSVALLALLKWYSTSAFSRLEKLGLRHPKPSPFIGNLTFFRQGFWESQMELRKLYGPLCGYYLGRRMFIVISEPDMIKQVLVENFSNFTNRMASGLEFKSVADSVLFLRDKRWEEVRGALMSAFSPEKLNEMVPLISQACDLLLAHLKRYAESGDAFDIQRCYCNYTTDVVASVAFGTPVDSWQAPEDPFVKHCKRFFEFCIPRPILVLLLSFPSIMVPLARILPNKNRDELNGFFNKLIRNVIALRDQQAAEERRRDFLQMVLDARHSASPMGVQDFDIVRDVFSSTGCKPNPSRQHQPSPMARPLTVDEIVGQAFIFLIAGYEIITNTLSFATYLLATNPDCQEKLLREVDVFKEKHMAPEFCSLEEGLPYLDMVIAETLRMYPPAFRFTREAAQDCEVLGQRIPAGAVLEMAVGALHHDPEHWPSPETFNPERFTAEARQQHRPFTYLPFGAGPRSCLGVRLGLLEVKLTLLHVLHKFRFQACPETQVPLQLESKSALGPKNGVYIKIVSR

The target of test [1] is Amyloid-beta precursor protein (Homo sapiens, UniProt P05067).
Description: Inhibition of amyloid beta (1 to 42 ) (unknown origin) self aggregation
In a further test the target is Acetylcholinesterase (Homo sapiens, UniProt P22303).
Test [2] has as its target Sodium-dependent serotonin transporter (Homo sapiens, UniProt P31645).
Description: Inhibition of SERT (unknown origin)
In test [3] the target is Voltage-dependent calcium channel subunit alpha-2/delta-1 (Homo sapiens, UniProt P54289).
Description: Binding affinity to calcium channel alpha2delta1 (unknown origin)

pIC50, pKi: −log10 of the molar value.

Amyloid-beta precursor protein, sequence (P05067 whole entry): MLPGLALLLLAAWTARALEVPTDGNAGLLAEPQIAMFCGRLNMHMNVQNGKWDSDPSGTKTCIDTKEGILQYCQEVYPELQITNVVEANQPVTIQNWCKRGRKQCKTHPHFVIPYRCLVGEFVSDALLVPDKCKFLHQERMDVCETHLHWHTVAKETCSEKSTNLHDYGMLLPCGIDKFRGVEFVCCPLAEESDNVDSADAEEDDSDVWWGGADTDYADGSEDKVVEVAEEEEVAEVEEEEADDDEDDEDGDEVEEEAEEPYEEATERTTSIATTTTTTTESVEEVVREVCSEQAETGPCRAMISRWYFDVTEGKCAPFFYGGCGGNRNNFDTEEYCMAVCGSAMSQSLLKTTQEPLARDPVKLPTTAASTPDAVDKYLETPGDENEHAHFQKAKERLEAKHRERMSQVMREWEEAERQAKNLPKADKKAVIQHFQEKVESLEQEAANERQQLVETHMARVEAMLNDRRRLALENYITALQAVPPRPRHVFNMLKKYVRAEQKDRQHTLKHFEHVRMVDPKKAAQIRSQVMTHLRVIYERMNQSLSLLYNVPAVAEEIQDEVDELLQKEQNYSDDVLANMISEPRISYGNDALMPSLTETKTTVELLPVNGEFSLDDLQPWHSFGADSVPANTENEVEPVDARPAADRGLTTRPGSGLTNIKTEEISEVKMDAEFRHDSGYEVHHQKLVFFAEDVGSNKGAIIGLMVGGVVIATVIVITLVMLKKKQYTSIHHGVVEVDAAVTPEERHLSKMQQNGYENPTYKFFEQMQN
Sodium-dependent serotonin transporter, sequence (P31645 whole entry): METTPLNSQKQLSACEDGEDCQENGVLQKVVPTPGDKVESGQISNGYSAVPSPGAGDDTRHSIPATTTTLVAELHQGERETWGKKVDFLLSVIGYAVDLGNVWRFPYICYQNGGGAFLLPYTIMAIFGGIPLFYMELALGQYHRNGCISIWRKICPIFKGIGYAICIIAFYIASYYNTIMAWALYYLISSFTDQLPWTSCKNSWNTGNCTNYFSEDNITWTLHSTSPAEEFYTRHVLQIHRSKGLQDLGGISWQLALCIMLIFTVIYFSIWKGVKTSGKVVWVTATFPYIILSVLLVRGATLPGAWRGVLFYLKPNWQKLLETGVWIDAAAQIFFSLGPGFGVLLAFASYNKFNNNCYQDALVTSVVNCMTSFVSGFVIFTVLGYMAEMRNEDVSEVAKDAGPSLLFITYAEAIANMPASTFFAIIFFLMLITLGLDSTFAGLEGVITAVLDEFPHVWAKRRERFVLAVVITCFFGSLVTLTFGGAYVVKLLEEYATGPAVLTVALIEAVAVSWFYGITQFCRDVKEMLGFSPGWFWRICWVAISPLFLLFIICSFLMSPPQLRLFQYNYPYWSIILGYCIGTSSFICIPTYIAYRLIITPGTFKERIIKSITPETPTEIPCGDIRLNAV
Acetylcholinesterase, sequence (P22303 whole entry): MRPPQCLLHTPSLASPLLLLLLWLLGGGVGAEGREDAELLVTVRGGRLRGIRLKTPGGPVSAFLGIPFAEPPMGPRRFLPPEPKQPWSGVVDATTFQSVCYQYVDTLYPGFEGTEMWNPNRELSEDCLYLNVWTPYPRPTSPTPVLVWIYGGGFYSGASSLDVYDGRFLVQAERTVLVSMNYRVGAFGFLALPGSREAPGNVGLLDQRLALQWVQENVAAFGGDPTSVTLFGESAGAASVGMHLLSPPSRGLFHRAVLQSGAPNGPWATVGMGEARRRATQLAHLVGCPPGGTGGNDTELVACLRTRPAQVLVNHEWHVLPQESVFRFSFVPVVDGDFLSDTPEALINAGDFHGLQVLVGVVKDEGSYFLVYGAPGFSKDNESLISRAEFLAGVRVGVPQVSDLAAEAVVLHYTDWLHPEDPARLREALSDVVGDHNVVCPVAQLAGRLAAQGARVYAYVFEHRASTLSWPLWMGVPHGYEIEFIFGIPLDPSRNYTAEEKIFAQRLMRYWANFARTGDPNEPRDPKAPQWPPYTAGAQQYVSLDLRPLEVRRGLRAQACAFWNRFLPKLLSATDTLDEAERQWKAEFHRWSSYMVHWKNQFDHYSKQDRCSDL
Voltage-dependent calcium channel subunit alpha-2/delta-1, sequence (P54289 25-956 limits assumed): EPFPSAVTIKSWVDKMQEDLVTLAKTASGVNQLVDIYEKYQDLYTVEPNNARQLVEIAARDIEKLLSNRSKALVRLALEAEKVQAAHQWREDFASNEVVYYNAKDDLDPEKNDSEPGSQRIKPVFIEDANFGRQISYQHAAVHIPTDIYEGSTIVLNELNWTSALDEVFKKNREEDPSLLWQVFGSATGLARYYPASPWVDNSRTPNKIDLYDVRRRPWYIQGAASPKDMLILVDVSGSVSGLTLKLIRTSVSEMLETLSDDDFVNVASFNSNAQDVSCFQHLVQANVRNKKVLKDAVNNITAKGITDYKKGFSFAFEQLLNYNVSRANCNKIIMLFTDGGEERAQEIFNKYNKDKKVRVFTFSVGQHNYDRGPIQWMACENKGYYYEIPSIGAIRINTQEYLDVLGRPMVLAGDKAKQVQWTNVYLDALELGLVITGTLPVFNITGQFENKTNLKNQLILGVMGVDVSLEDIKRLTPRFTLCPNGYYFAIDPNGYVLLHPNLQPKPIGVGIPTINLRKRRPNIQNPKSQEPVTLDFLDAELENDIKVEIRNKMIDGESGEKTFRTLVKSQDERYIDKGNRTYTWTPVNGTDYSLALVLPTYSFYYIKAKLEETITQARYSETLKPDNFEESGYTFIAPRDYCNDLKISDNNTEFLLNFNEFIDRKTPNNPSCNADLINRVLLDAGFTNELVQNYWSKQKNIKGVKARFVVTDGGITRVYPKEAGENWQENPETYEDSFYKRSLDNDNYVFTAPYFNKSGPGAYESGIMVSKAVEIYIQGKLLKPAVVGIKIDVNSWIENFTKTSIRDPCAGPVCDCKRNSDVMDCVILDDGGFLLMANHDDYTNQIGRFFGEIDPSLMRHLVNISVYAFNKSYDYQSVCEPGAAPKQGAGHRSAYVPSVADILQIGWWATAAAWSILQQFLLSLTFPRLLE
Voltage-dependent calcium channel subunit alpha-2/delta-1, sequence (P54289 957-1103 limits assumed): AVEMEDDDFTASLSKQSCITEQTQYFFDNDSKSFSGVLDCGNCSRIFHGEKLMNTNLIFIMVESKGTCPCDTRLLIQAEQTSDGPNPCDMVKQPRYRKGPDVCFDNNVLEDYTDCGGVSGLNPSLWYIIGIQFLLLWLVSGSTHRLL
Description for Acetylcholinesterase: Inhibition of AChE (unknown origin)
Description for Thromboxane-A synthase: Inhibition of TXA2 synthetase (unknown origin)
Description for Vitamin D3 receptor: Inhibition of VDR (unknown origin)

In turn, `CC(/C=C/C(=O)NO)=C\C(C)C1CCC2/C(=C/C=C3CC(O)CC(O)C3)CCCC21C` (stereo not given) showed a pIC50 against Vitamin D3 receptor of 7.06.
Regarding `O=C(O)CCCCO/N=C(/c1cccnc1)c1cccc(C(F)(F)F)c1` [RIDOGREL], the pIC50 on Thromboxane-A synthase was 6.30.
The compound `Cc1c(O)c(=O)ccn1-c1ccc(OCCCN2CCCC2)cc1` gave a pIC50 in test [1] of 5.55.
Turning to `CCN(C)C(=O)Oc1ccc(C(CCOc2ccc([N+](=O)[O-])cc2)NC)cc1` (stereo not given), the pIC50 against Acetylcholinesterase is 7.00; in test [2], 7.38.
For the compound `CCN(CC)CCCOc1ccc(-c2oc3ccccc3c2C(=O)c2ccc(C)cc2)cc1`, the pIC50 in test [1] is 4.25.
Regarding `CCN(C)C(=O)Oc1ccc2c(c1)C=CC(C)N(C)C2CCOc1ccc([N+](=O)[O-])cc1` (stereo not given), the pIC50 against Acetylcholinesterase is 7.85; in test [2], 8.22.
For the compound `CCOC(=O)CCCCO/N=C(/c1cccnc1)c1cccc(CNS(=O)(=O)c2ccc(Cn3c(C)nc4ccccc43)cc2)c1`, the pIC50 on Thromboxane-A synthase is 8.33.
On to `CCNc1ncc2c(n1)N1CCCC1CN(c1cccc(-c3noc(C)n3)c1)C2=O` (stereo not given), for which the pKi in test [3] was 7.96.

As usually defined, the pIC50 is the IC50 on a negative log10 scale, so that one unit is a factor of ten. Read a low pIC50 as a large IC50. The term pKi denotes the Ki on a negative log10 scale, so that one unit is a factor of ten.
